In patent publication US4308380A, “2-Lower alkyl-2 or 3-cephem-4-carboxylic acid derivatives” (Fujisawa Pharmaceutical Co., Ltd., priority 1973, dated 1981):
Values after ≈ are worked out from the molar mass of the structure shown. Structures can show the parent of a compound that is named as a salt. Where two headings read alike, the source gives them in different places.

Columns and labels:
[1] = test system: Staphylococcus aureus 209 P JC-1; test: in vitro antimicrobial activity, two-fold agar-plate dilution method, S. aureus 209 P JC-1; format: cell-based; conditions: read-out: minimum inhibitory concentration (MIC)
Procedure: (§1) In vitro antimicrobial activity was determined by the two-fold agar-plate dilution method as described below.
(§2) One loopful of an overnight culture of each test strain in Trypticase-soy broth (10^8 viable cells per ml) was streaked on heart infusion agar (HI-agar) containing graded concentration of antibiotics, and the minimum inhibitory concentration (MIC) was expressed in terms of meg/ml after incubation at 37° C. for 20 hours.
(§3) The data in Table 1 below present a comparison between the 2-(C1 -C6 alkyl)-cephem compounds of the present invention and known cephem compounds structurally analogous to the present compounds, differing only by alkyl substitution in the 3-position. The in vitro tests of antimicrobial activity of the compared compounds were determined by the two-fold agar plate dilution method described as follows:
as §2, with “(HI sugar)” for “(HI-agar)”, “mcg/ml” for “meg/ml”

[2] = test system: Staphylococcus aureus 278; test: in vitro antimicrobial activity, two-fold agar plate dilution method, S. aureus 278; format: cell-based; conditions: Table 1, S. aureus 278, 37° C., 20 hours, read-out: minimum inhibitory concentration (MIC)
Procedure: (§4) The in vitro tests of antimicrobial activity of the compared compounds were determined by the two-fold agar plate dilution method described as follows: […]

[3] = test system: Staphylococcus aureus 213; test: in vitro antimicrobial activity, two-fold agar plate dilution method, S. aureus 213; format: cell-based; conditions: Table 1, S. aureus 213, 37° C., 20 hours, read-out: minimum inhibitory concentration (MIC)
Procedure: as §4

[4] = test system: Staphylococcus aureus 206; test: in vitro antimicrobial activity, two-fold agar plate dilution method, S. aureus 206; format: cell-based; conditions: Table 1, S. aureus 206, 37° C., 20 hours, read-out: minimum inhibitory concentration (MIC)
Procedure: as §4

[5] = test system: Staphylococcus aureus 277; test: in vitro antimicrobial activity, two-fold agar plate dilution method, S. aureus 277; format: cell-based; conditions: Table 1, S. aureus 277, 37° C., 20 hours, read-out: minimum inhibitory concentration (MIC)
Procedure: as §4

[6] = test system: Staphylococcus aureus 226; test: in vitro antimicrobial activity, two-fold agar plate dilution method, S. aureus 226; format: cell-based; conditions: Table 1, S. aureus 226, 37° C., 20 hours, read-out: minimum inhibitory concentration (MIC)
Procedure: as §4

[7] = test system: Bacillus subtilis ATCC-6633; test: in vitro antimicrobial activity, two-fold agar-plate dilution method, B. subtilis ATCC-6633; format: cell-based; conditions: read-out: minimum inhibitory concentration (MIC)
Procedure: as §1, §2, §3
as §2, with “(HI sugar)” for “(HI-agar)”, “mcg/ml” for “meg/ml”

E. coli 327 [8] = test: protecting effect against experimental infections in mice; format: in vivo, mice (male ICR strain); conditions: E. coli 327, intraperitoneal inoculation 8.5×10^2 cells/mouse, subcutaneous one hour after challenge, survival after one week, probit method
Procedure: The following test describes the method of estimating the protecting effects of Applicants' compound (18) versus cited […], "Keflex", against experimental infections in mice.
Male ICR strain mice aged 4 weeks, each weighing 20-23 g were used in groups of 8 mice. The organisms precultured overnight at 37° C. on HI-agar were suspended in 5% mucin solution to obtain cell concentrations of 8.5×10^2 cells/mouse. Mice were inoculated intraperitoneally with 0.5 ml of the suspension. Each of the test antibiotics was given subcutaneously to the mice one hour after challenge. The ED50 values were found by the probit method from the number of surviving mice after one week of observation.

E. coli 327 [9] = test: in vitro MIC against E. coli 327 at different inoculum sizes (Table 2); format: cell-based
[10] = 209PJC1, Table 1, S. aureus 209 P JC-1, 37° C., 20 hours
[11] = ATCC6633, Table 1, B. subtilis ATCC-6633, 37° C., 20 hours
[12] = Escherichia coli, 327, E. coli 327, inoculum size 10^4
[13] = Escherichia coli, 327, E. coli 327, inoculum size 10^6
[14] = Escherichia coli, 327, E. coli 327, inoculum size 10^8

SMILES	MIC [1, 10] [µg/mL]	MIC [2] [µg/mL]	MIC [3] [µg/mL]	MIC [4] [µg/mL]	MIC [5] [µg/mL]	MIC [6] [µg/mL]	MIC [7, 11] [µg/mL]	ED50 (E. coli 327 [8]) [mg/mouse]	MIC (E. coli 327 [9]; [12]) [µg/mL]	MIC (E. coli 327 [9]; [13]) [µg/mL]	MIC (E. coli 327 [9]; [14]) [µg/mL]	MIC ([1]; 209PJC1, 20 h) [µg/mL]	MIC ([7]; ATCC6633, 20 h) [µg/mL]
CC1C=C(C(=O)O)N2C(=O)C(NC(=O)Cc3csc(N)n3)[C@H]2S1 (stereo partly shown) [Applicants' compound (17), 2-Methyl-7-[2-(2-aminothiazol-4-yl)acetamido]-3-cephem-4-carboxylic acid]	1.56 (≈ 4.4 µM)	1.56 (≈ 4.4 µM)	1.56 (≈ 4.4 µM)	3.13 (≈ 8.83 µM)	1.56 (≈ 4.4 µM)	1.56 (≈ 4.4 µM)	3.13 (≈ 8.83 µM)	–	–	–	–	–	–
CC1C=C(C(=O)O)N2C(=O)C(NC(=O)C(N)c3ccccc3)C2S1 (stereo not shown) [Applicants' compound (18), 2-Methyl-7-(2-phenylglycyl)-amino-3-cephem-4-carboxylic acid]	6.25 (≈ 18 µM)	25 (≈ 72 µM)	50 (≈ 144 µM)	12.5 (≈ 36 µM)	12.5 (≈ 36 µM)	25 (≈ 72 µM)	1.56 (≈ 4.49 µM)	0.25	12.5 (≈ 36 µM)	50 (≈ 144 µM)	100 (≈ 288 µM)	–	–
CC1=C(C(=O)O)N2C(=O)C(NC(=O)C(O)c3cccs3)C2SC1 (stereo not shown) [cited compound (2), 3-Methyl-7-[2-hydroxy-2-(2-thienyl)acetamido]-3-cephem-4-carboxylic acid (sodium salt), reference compound]	6.25	12.5	25	6.25	12.5	12.5	1.56	–	–	–	–	–	–
CC1=C(C(=O)O)N2C(=O)C(NC(=O)C(OC(=O)c3ccncc3)c3ccccc3)C2SC1 (stereo not shown) [cited compound (4), reference compound]	1.56 (≈ 3.44 µM)	12.5 (≈ 27.6 µM)	12.5 (≈ 27.6 µM)	12.5 (≈ 27.6 µM)	12.5 (≈ 27.6 µM)	12.5 (≈ 27.6 µM)	0.78 (≈ 1.72 µM)	–	–	–	–	–	–
CC1=C(C(=O)O)N2C(=O)C(NC(=O)Cc3cccs3)[C@H]2SC1 (stereo partly shown) [cited compound (5), 3-Methyl-7-[2-(2-thienyl)acetamido]-3-cephem-4-carboxylic acid, reference compound]	3.13 (≈ 9.25 µM)	6.25 (≈ 18.5 µM)	12.5 (≈ 36.9 µM)	3.13 (≈ 9.25 µM)	12.5 (≈ 36.9 µM)	12.5 (≈ 36.9 µM)	0.78 (≈ 2.3 µM)	–	–	–	–	–	–
CC1=C(C(=O)O)N2C(=O)C(NC(=O)C(O)c3ccccc3)[C@H]2SC1 (stereo partly shown) [cited compound (7), 3-Methyl-7-(2-hydroxy-2-phenylacetamido)-3-cephem-4-carboxylic acid, reference compound]	3.13 (≈ 8.98 µM)	12.5 (≈ 35.9 µM)	25 (≈ 71.8 µM)	12.5 (≈ 35.9 µM)	12.5 (≈ 35.9 µM)	12.5 (≈ 35.9 µM)	1.56 (≈ 4.48 µM)	–	–	–	–	–	–
CC1=C(C(=O)O)N2C(=O)C(NC(=O)Cc3ccccc3)[C@H]2SC1 (stereo partly shown) [cited compound (8), 3-Methyl-7-(2-phenylacetamido)-3-cephem-4-carboxylic acid, reference compound]	–	3.13 (≈ 9.42 µM)	6.25 (≈ 18.8 µM)	6.25 (≈ 18.8 µM)	1.56 (≈ 4.69 µM)	3.13 (≈ 9.42 µM)	–	–	–	–	–	1.56 (≈ 4.69 µM)	0.78 (≈ 2.35 µM)
CC1=C(C(=O)O)N2C(=O)C(NC(=O)CSc3ccccc3)C2SC1 (stereo not shown) [cited compound (9), 3-Methyl-7-(2-phenylthioacetamido)-3-cephem-4-carboxylic acid, reference compound]	0.39 (≈ 1.07 µM)	0.39 (≈ 1.07 µM)	0.78 (≈ 2.14 µM)	0.39 (≈ 1.07 µM)	0.39 (≈ 1.07 µM)	1.56 (≈ 4.28 µM)	0.39 (≈ 1.07 µM)	–	–	–	–	–	–
CC1=C(C(=O)O)N2C(=O)C(NC(=O)C(N)c3ccccc3)[C@H]2SC1 (stereo partly shown) [cited compound (18), 3-Methyl-7-(2-phenylglycyl)amino-3-cephem-4-carboxylic acid, reference compound]	–	3.13 (≈ 9.01 µM)	12.5 (≈ 36 µM)	6.25 (≈ 18 µM)	3.13 (≈ 9.01 µM)	12.5 (≈ 36 µM)	–	1.06	6.25 (≈ 18 µM)	12.5 (≈ 36 µM)	100 (≈ 288 µM)	3.13 (≈ 9.01 µM)	1.56 (≈ 4.49 µM)

The next lines start with results.

MIC [1, 10] [µg/mL]	MIC [2] [µg/mL]	MIC [3] [µg/mL]	MIC [4] [µg/mL]	MIC [5] [µg/mL]	MIC [6] [µg/mL]	MIC [7, 11] [µg/mL]	SMILES	ED50 (E. coli 327 [8]) [mg/mouse]	MIC (E. coli 327 [9]; [12]) [µg/mL]	MIC (E. coli 327 [9]; [13]) [µg/mL]	MIC (E. coli 327 [9]; [14]) [µg/mL]	MIC ([1]; 209PJC1, 20 h) [µg/mL]	MIC ([7]; ATCC6633, 20 h) [µg/mL]
3.13 (≈ 8.4 µM)	3.13 (≈ 8.4 µM)	6.25 (≈ 16.8 µM)	3.13 (≈ 8.4 µM)	6.25 (≈ 16.8 µM)	6.25 (≈ 16.8 µM)	1.56 (≈ 4.19 µM)	CC1=C(C(=O)O)N2C(=O)C(NC(=O)CSc3nncs3)[C@H]2SC1 (stereo partly shown) [cited compound (11), 3-Methyl-7-[2-(1,3,4-thiadiazol-2-ylthio)acetamido]-3-cephem-4-carboxylic acid, reference compound]	–	–	–	–	–	–
12.5 (≈ 36.7 µM)	25 (≈ 73.4 µM)	25 (≈ 73.4 µM)	12.5 (≈ 36.7 µM)	25 (≈ 73.4 µM)	25 (≈ 73.4 µM)	3.13 (≈ 9.2 µM)	CC1=C(C(=O)O)N2C(=O)C(NC(=O)Cc3cnsn3)[C@H]2SC1 (stereo partly shown) [cited compound (12), 3-Methyl-7-[2-(1,2,5-thiadiazol-3-yl)acetamido]-3-cephem-4-carboxylic acid, reference compound]	–	–	–	–	–	–
6.25 (≈ 22.2 µM)	12.5 (≈ 44.4 µM)	12.5 (≈ 44.4 µM)	6.25 (≈ 22.2 µM)	12.5 (≈ 44.4 µM)	12.5 (≈ 44.4 µM)	3.13 (≈ 11.1 µM)	CC1=C(C(=O)O)N2C(=O)C(NC(=O)CC#N)[C@H]2SC1 (stereo partly shown) [cited compound (13), 3-Methyl-7-(2-cyanoacetamido)-3-cephem-4-carboxylic acid, reference compound]	–	–	–	–	–	–
6.25 (≈ 19 µM)	6.25 (≈ 19 µM)	12.5 (≈ 38.1 µM)	6.25 (≈ 19 µM)	6.25 (≈ 19 µM)	6.25 (≈ 19 µM)	3.13 (≈ 9.53 µM)	C=CCSCC(=O)NC1C(=O)N2C(C(=O)O)=C(C)CS[C@H]12 (stereo partly shown) [cited compound (14), 3-Methyl-7-[2-(allylthio)acetamido]-3-cephem-4-carboxylic acid, reference compound]	–	–	–	–	–	–
6.25 (≈ 18.7 µM)	12.5 (≈ 37.5 µM)	25 (≈ 75 µM)	12.5 (≈ 37.5 µM)	6.25 (≈ 18.7 µM)	12.5 (≈ 37.5 µM)	1.56 (≈ 4.68 µM)	CC1=C(C(=O)O)N2C(=O)C(NC(=O)Cc3cccnc3)[C@H]2SC1 (stereo partly shown) [cited compound (15), 3-Methyl-7-[2-(3-pyridyl)acetamido]-3-cephem-4-carboxylic acid, reference compound]	–	–	–	–	–	–
